Experimental data as given in US11420943B2, “Peptide derivatives and therapeutic activity thereof” (FLAMMA S.P.A., priority 2017, dated 2022).
Where two headings read alike, the source gives them in different places. Where a SMILES comes first, the peptide text is derived from it. [ ]: non-standard residue; d: D form. Aib = CC(C)(N)C(=O)O

What was measured:
[1] = reported in WO2011/080139, same test; cited from earlier work
[2] = Carbonyl-quenching activity towards HNE in vitro (residual HNE by reverse-phase chromatography); type: biochemical; conditions: for ACTIVITY (CARNOSINE UNIT) 1 h / HNE CONSUMPTION (%) 1 h: 1 h incubation; for ACTIVITY (CARNOSINE UNIT) 1 h / HNE CONSUMPTION (%) 1 h / ACTIVITY (CARNOSINE UNIT) 3 h / HNE CONSUMPTION (%) 3 h: HNE 50 μM, compound 1 mM, phosphate buffer 10 mM, pH 7.4, 37° C.; for ACTIVITY (CARNOSINE UNIT) 3 h / HNE CONSUMPTION (%) 3 h: 3 h incubation
Description: (§1) The pharmacological activity of the compounds according to the invention was determined in vitro by evaluating their carbonyl-quenching activity towards 4-hydroxy nonenal (HNE), which is known for its involvement in numerous disorders. Said activity was compared with that of L-carnosine, a compound known as a carbonyl quencher in vitro but having limited metabolic stability caused by serum carnosinase. The metabolic stability of a particularly interesting compound was also evaluated in human serum after 1 and 2 hours.
The activity was evaluated one and three hours after incubation, determining the residual HNE content by reverse-phase chromatography as previously described by Aldini G. et al. [Biochem Biophys Res Commun. 2002 Nov. 15; 298 (5):699-706]. The carbonyl-quenching activity is evaluated on the basis of the percentage of HNE reacted, compared with the HNE content in the absence of the molecule to be tested.

[3] = Stability in human serum (HPLC-MS recovery); type: in vitro ADME; conditions: 37° C.
Description: as §1
The samples taken from each matrix, suitably treated, were analysed by HPLC-MS, obtaining recovery after 1 h and 2 h.

NCCC(=O)N[C@H](CO)Cc1cnc[nH]1 [3-amino-N-[(1S)-2-hydroxy-1-(1H-imidazol-5-yl-methyl)ethyl]propanamide]
carbonyl-quenching activity, times greater than that of L-carnosine [1]: 1.6 times

NCCC(=O)N[C@@H](Cc1cnc[nH]1)C(=O)O [CARNOSINE, L-carnosine, reference compound]
ACTIVITY (CARNOSINE UNIT) 1 h [2]: 1.00 CARNOSINE UNIT
HNE CONSUMPTION (%) 1 h [2]: 17.05 ± 1.24%
ACTIVITY (CARNOSINE UNIT) 3 h [2]: 1.00 CARNOSINE UNIT
HNE CONSUMPTION (%) 3 h [2]: 42.66 ± 0.89%

CC(C)(CN)C(=O)N[C@@H](Cc1c[nH]cn1)C(=O)O [FLM-04-ACI, N-(3-amino-2,2-dimethylpropanoyl)-L-histidine]
ACTIVITY (CARNOSINE UNIT) 1 h [2]: 1.76 CARNOSINE UNIT
HNE CONSUMPTION (%) 1 h [2]: 30.06 ± 4.68%
ACTIVITY (CARNOSINE UNIT) 3 h [2]: 1.51 CARNOSINE UNIT
HNE CONSUMPTION (%) 3 h [2]: 64.44 ± 4.37%

CC(C)(CN)C(=O)N[C@@H](Cc1c[nH]cn1)C(=O)O [FLM-12-ACI, N-(3-amino-2,2-dimethylpropanoyl)-L-histidine]
ACTIVITY (CARNOSINE UNIT) 1 h [2]: 1.58 CARNOSINE UNIT
HNE CONSUMPTION (%) 1 h [2]: 27.07 ± 9.77%
ACTIVITY (CARNOSINE UNIT) 3 h [2]: 1.20 CARNOSINE UNIT
HNE CONSUMPTION (%) 3 h [2]: 51.35 ± 9.22%

CC(C)(CN)C(=O)N[C@H](CO)Cc1c[nH]cn1 [FLM-04-OLO, (S)-3-amino-N-(1-hydroxy-3-(1H-imidazol-4-yl)propan-2-yl)-2,2-dimethylpropanamide]
Stability in plasma (% residual amount) 1 h ([3]; 1 h): 101.78 ± 16.20%
Stability in plasma (% residual amount) 2 h ([3]; 2 h): 100.34 ± 9.46%
ACTIVITY (CARNOSINE UNIT) 1 h [2]: 3.13 CARNOSINE UNIT
HNE CONSUMPTION (%) 1 h [2]: 52.14 ± 5.56%
ACTIVITY (CARNOSINE UNIT) 3 h [2]: 2.00 CARNOSINE UNIT
HNE CONSUMPTION (%) 3 h [2]: 86.47 ± 2.73%
carbonyl-quenching activity, times greater than that of L-carnosine ([2]; see Table I): 3.1 times

NCC(F)(F)C(=O)N[C@@H](Cc1c[nH]cn1)C(=O)O [FLM-07-ACI, N-(3-amino-2,2-difluoropropanoyl)-L-histidine]
ACTIVITY (CARNOSINE UNIT) 1 h [2]: 0.46 CARNOSINE UNIT
HNE CONSUMPTION (%) 1 h [2]: 7.88 ± 5.41%
ACTIVITY (CARNOSINE UNIT) 3 h [2]: 0.69 CARNOSINE UNIT
HNE CONSUMPTION (%) 3 h [2]: 29.42 ± 6.42%

NCC1(C(=O)N[C@@H](Cc2c[nH]cn2)C(=O)O)CC1 [FLM-09-ACI]
ACTIVITY (CARNOSINE UNIT) 1 h [2]: 0.81 CARNOSINE UNIT
HNE CONSUMPTION (%) 1 h [2]: 13.70 ± 0.83%
ACTIVITY (CARNOSINE UNIT) 3 h [2]: 0.89 CARNOSINE UNIT
HNE CONSUMPTION (%) 3 h [2]: 36.11 ± 2.87%

NCC1(C(=O)N[C@H](CO)Cc2c[nH]cn2)CC1 [FLM-09-OLO, (S)-1-(aminomethyl)-N-(1-hydroxy-3-(1H-imidazol-4-yl)propan-2-yl)cyclopropanecarboxamide]
ACTIVITY (CARNOSINE UNIT) 1 h [2]: 1.55 CARNOSINE UNIT
HNE CONSUMPTION (%) 1 h [2]: 26.21 ± 1.04%
ACTIVITY (CARNOSINE UNIT) 3 h [2]: 1.45 CARNOSINE UNIT
HNE CONSUMPTION (%) 3 h [2]: 59.09 ± 1.49%

Cn1cncc1C[C@@H](CO)NC(=O)C(C)(C)CN [FLM-12-OLO, (S)-3-amino-N-(1-hydroxy-3-(1-methyl-1H-imidazol-5-yl)propan-2-yl)-2,2-dimethylpropanamide]
ACTIVITY (CARNOSINE UNIT) 1 h [2]: 2.98 CARNOSINE UNIT
HNE CONSUMPTION (%) 1 h [2]: 50.77 ± 3.84%
ACTIVITY (CARNOSINE UNIT) 3 h [2]: 1.64 CARNOSINE UNIT
HNE CONSUMPTION (%) 3 h [2]: 70.08 ± 2.98%

NCC1(C(=O)N[C@@H](Cc2c[nH]cn2)C(=O)O)CCCCC1 [FLM-14-ACI]
ACTIVITY (CARNOSINE UNIT) 1 h [2]: 1.71 CARNOSINE UNIT
HNE CONSUMPTION (%) 1 h [2]: 29.10 ± 2.97%
ACTIVITY (CARNOSINE UNIT) 3 h [2]: 1.36 CARNOSINE UNIT
HNE CONSUMPTION (%) 3 h [2]: 58.03 ± 2.37%

NCC1(C(=O)N[C@H](CO)Cc2c[nH]cn2)CCCC1 [FLM-11-OLO, (S)-1-(aminomethyl)-N-(1-hydroxy-3-(1H-imidazol-4-yl)propan-2-yl)cyclopentanecarboxamide]
ACTIVITY (CARNOSINE UNIT) 1 h [2]: 2.82 CARNOSINE UNIT
HNE CONSUMPTION (%) 1 h [2]: 47.56 ± 0.69%
ACTIVITY (CARNOSINE UNIT) 3 h [2]: 2.06 CARNOSINE UNIT
HNE CONSUMPTION (%) 3 h [2]: 83.90 ± 0.33%

CC(C)(N)C(=O)N[C@H](CO)Cc1c[nH]cn1 [FLM-05-OLO, (S)-2-amino-N-(1-hydroxy-3-(1H-imidazol-4-yl)propan-2-yl)-2-methylpropanamide]
ACTIVITY (CARNOSINE UNIT) 1 h [2]: 0.38 CARNOSINE UNIT
HNE CONSUMPTION (%) 1 h [2]: 6.40 ± 1.72%
ACTIVITY (CARNOSINE UNIT) 3 h [2]: 0.45 CARNOSINE UNIT
HNE CONSUMPTION (%) 3 h [2]: 19.44 ± 2.36%

CC(C)(CCN)C(=O)N[C@H](CO)Cc1c[nH]cn1 [FLM-13-OLO, (S)-4-amino-N-(1-hydroxy-3-(1H-imidazol-4-yl)propan-2-yl)-2,2-dimethylbutanamide]
ACTIVITY (CARNOSINE UNIT) 1 h [2]: 0.62 CARNOSINE UNIT
HNE CONSUMPTION (%) 1 h [2]: 10.54 ± 10.04%
ACTIVITY (CARNOSINE UNIT) 3 h [2]: 0.54 CARNOSINE UNIT
HNE CONSUMPTION (%) 3 h [2]: 23.05 ± 12.28%

NCC1(C(=O)N[C@@H](Cc2c[nH]cn2)C(=O)O)CCC1 [FLM-10-ACI]
ACTIVITY (CARNOSINE UNIT) 1 h [2]: 1.06 CARNOSINE UNIT
HNE CONSUMPTION (%) 1 h [2]: 17.89 ± 1.97%
ACTIVITY (CARNOSINE UNIT) 3 h [2]: 1.11 CARNOSINE UNIT
HNE CONSUMPTION (%) 3 h [2]: 45.04 ± 2.94%

NCC1(C(=O)N[C@@H](Cc2c[nH]cn2)C(=O)O)CCCC1 [FLM-11-ACI]
ACTIVITY (CARNOSINE UNIT) 1 h [2]: 1.41 CARNOSINE UNIT
HNE CONSUMPTION (%) 1 h [2]: 23.82 ± 1.55%
ACTIVITY (CARNOSINE UNIT) 3 h [2]: 1.31 CARNOSINE UNIT
HNE CONSUMPTION (%) 3 h [2]: 53.54 ± 1.10%

NCC1(C(=O)N[C@H](CO)Cc2c[nH]cn2)CCC1 [FLM-10-OLO, (S)-1-(aminomethyl)-N-(1-hydroxy-3-(1H-imidazol-4-yl)propan-2-yl)cyclobutanecarboxamide]
ACTIVITY (CARNOSINE UNIT) 1 h [2]: 2.82 CARNOSINE UNIT
HNE CONSUMPTION (%) 1 h [2]: 47.68 ± 3.02%
ACTIVITY (CARNOSINE UNIT) 3 h [2]: 2.08 CARNOSINE UNIT
HNE CONSUMPTION (%) 3 h [2]: 84.63 ± 2.70%

NCC1(C(=O)N[C@H](CO)Cc2c[nH]cn2)CCCCC1 [FLM-14-OLO, (S)-1-(aminomethyl)-N-(1-hydroxy-3-(1H-imidazol-4-yl)propan-2-yl)cyclohexanecarboxamide]
ACTIVITY (CARNOSINE UNIT) 1 h [2]: 2.84 CARNOSINE UNIT
HNE CONSUMPTION (%) 1 h [2]: 48.36 ± 6.22%
ACTIVITY (CARNOSINE UNIT) 3 h [2]: 1.96 CARNOSINE UNIT
HNE CONSUMPTION (%) 3 h [2]: 83.50 ± 5.85%

CC(C)(N)CC(=O)N[C@H](CO)Cc1c[nH]cn1 [FLM-02-OLO, (S)-3-amino-N-(1-hydroxy-3-(1H-imidazol-4-yl)propan-2-yl)-3,3-dimethylpropanamide]
ACTIVITY (CARNOSINE UNIT) 1 h [2]: 0.25 CARNOSINE UNIT
HNE CONSUMPTION (%) 1 h [2]: 4.09 ± 2.61%
ACTIVITY (CARNOSINE UNIT) 3 h [2]: 0.24 CARNOSINE UNIT
HNE CONSUMPTION (%) 3 h [2]: 10.50 ± 2.24%

CC(C)(N)C(=O)N[C@@H](Cc1c[nH]cn1)C(=O)O [FLM-05-ACI, N-(2-amino-2-methylpropanoyl)-L-histidine] (H-[Aib]-His-OH)
ACTIVITY (CARNOSINE UNIT) 1 h [2]: 0.33 CARNOSINE UNIT
HNE CONSUMPTION (%) 1 h [2]: 5.58 ± 7.50%
ACTIVITY (CARNOSINE UNIT) 3 h [2]: 0.37 CARNOSINE UNIT
HNE CONSUMPTION (%) 3 h [2]: 15.84 ± 10.65%

CC(C)(N)CC(=O)N[C@@H](Cc1c[nH]cn1)C(=O)O [FLM-02-ACI, N-(3-amino-3,3-dimethylpropanoyl)-L-histidine]
ACTIVITY (CARNOSINE UNIT) 1 h [2]: 0.02 CARNOSINE UNIT
HNE CONSUMPTION (%) 1 h [2]: 0.40 ± 1.73%
ACTIVITY (CARNOSINE UNIT) 3 h [2]: 0.14 CARNOSINE UNIT
HNE CONSUMPTION (%) 3 h [2]: 6.05 ± 1.66%

CC(C)(CCN)C(=O)N[C@@H](Cc1c[nH]cn1)C(=O)O [FLM-13-ACI, N-(4-amino-2,2-dimethylbutanoyl)-L-histidine]
ACTIVITY (CARNOSINE UNIT) 1 h [2]: 0.69 CARNOSINE UNIT
HNE CONSUMPTION (%) 1 h [2]: 11.77 ± 6.79%
ACTIVITY (CARNOSINE UNIT) 3 h [2]: 0.48 CARNOSINE UNIT
HNE CONSUMPTION (%) 3 h [2]: 20.43 ± 7.94%

NCC(F)(F)C(=O)N[C@H](CO)Cc1c[nH]cn1 [FLM-07-OLO, (S)-3-amino-2,2-difluoro-N-(1-hydroxy-3-(1H-imidazol-4-yl)propan-2-yl)propanamide]
ACTIVITY (CARNOSINE UNIT) 1 h [2]: 1 CARNOSINE UNIT
HNE CONSUMPTION (%) 1 h [2]: 17.07 ± 1.76%
ACTIVITY (CARNOSINE UNIT) 3 h [2]: 0.82 CARNOSINE UNIT
HNE CONSUMPTION (%) 3 h [2]: 34.93 ± 0.58%
